In ChEMBL document CHEMBL1909046, “DrugMatrix in vitro pharmacology data”:

Assays:
[1] = DRUGMATRIX: Tumor Necrosis Factor (TNF), Non-Selective radioligand binding (ligand: [125I] TNF-alpha); assay type: cell membranes, Membrane; conditions: u-937; Not Active = under 50% inhibition at 10 µM
Interstitial collagenase = biological target: T1, Interstitial collagenase (Homo sapiens, UniProt P03956); assay type: tissue-based, Rheumatoid synovial fibroblasts;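 note: MMP-1 enzyme inhibition assay using a peptide substrate; in other assays of this panel Not Active means under 50% inhibition at 10 µM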
T1 sequence (P03956 whole entry): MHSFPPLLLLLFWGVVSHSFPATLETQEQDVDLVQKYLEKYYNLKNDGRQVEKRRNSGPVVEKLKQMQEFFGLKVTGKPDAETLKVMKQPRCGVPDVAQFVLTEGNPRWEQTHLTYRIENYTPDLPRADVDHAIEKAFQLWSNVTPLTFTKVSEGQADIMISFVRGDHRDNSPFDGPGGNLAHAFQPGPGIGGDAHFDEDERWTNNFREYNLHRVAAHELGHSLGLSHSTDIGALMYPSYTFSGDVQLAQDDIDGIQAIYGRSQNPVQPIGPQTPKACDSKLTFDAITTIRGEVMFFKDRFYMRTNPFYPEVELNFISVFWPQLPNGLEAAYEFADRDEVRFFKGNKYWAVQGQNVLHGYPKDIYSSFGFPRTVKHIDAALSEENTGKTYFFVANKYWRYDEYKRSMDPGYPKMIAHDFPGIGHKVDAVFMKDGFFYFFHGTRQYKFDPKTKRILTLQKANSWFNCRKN

[2] = DRUGMATRIX: Atrial Natriuretic Factor (ANF) radioligand binding (ligand: [125I] ANF (rat)); assay type: cell membranes, Cavia porcellus, Dunkin-Hartley, Adrenal gland, Membrane; conditions: Not Active = under 50% inhibition at 10 µM
[3] = biological target: T2, Nitric oxide synthase, inducible (Mus musculus, UniProt P29477); set-up: species or system Escherichia coli;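 note: inhibition of iNOS enzyme activity measured with L-arginine as substrate; in other assays of this panel Not Active means under 50% inhibition at 10 µM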
T2 sequence (P29477 whole entry): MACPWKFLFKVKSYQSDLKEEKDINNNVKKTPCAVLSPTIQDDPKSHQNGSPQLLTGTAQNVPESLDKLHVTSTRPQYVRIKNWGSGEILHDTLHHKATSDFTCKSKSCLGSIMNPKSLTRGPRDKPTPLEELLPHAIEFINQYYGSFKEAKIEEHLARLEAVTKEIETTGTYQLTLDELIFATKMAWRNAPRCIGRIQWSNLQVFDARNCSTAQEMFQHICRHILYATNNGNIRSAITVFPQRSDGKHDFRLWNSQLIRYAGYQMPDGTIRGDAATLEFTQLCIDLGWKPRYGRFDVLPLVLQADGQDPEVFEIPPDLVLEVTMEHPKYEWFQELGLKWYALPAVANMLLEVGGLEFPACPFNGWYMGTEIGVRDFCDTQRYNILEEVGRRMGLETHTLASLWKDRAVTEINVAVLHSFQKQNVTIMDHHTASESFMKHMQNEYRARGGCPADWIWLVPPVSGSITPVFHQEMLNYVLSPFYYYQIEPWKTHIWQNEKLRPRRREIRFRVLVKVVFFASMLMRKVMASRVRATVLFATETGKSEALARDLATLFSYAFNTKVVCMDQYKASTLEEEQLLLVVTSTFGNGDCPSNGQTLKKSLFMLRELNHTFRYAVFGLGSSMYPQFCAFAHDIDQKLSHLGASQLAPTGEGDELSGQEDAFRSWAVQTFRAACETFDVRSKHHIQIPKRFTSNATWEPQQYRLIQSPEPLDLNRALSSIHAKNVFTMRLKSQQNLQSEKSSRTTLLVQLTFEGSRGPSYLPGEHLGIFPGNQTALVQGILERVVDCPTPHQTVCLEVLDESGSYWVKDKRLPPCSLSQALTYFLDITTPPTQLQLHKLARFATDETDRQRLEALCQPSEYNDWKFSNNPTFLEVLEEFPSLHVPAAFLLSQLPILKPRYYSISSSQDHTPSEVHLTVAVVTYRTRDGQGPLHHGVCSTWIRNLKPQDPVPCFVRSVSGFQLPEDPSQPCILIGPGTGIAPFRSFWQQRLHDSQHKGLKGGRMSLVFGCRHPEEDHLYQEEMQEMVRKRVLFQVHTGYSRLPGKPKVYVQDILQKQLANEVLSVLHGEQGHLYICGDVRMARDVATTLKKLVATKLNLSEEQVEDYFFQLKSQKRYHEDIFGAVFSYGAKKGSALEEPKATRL

Nitric oxide synthase 1 = Nitric oxide synthase 1 (Rattus norvegicus, UniProt P29476); assay type: tissue-based, Cerebellum; note: in other assays of this panel Not Active means under 50% inhibition at 10 µM
Sequence of Nitric oxide synthase 1 (P29476 whole entry): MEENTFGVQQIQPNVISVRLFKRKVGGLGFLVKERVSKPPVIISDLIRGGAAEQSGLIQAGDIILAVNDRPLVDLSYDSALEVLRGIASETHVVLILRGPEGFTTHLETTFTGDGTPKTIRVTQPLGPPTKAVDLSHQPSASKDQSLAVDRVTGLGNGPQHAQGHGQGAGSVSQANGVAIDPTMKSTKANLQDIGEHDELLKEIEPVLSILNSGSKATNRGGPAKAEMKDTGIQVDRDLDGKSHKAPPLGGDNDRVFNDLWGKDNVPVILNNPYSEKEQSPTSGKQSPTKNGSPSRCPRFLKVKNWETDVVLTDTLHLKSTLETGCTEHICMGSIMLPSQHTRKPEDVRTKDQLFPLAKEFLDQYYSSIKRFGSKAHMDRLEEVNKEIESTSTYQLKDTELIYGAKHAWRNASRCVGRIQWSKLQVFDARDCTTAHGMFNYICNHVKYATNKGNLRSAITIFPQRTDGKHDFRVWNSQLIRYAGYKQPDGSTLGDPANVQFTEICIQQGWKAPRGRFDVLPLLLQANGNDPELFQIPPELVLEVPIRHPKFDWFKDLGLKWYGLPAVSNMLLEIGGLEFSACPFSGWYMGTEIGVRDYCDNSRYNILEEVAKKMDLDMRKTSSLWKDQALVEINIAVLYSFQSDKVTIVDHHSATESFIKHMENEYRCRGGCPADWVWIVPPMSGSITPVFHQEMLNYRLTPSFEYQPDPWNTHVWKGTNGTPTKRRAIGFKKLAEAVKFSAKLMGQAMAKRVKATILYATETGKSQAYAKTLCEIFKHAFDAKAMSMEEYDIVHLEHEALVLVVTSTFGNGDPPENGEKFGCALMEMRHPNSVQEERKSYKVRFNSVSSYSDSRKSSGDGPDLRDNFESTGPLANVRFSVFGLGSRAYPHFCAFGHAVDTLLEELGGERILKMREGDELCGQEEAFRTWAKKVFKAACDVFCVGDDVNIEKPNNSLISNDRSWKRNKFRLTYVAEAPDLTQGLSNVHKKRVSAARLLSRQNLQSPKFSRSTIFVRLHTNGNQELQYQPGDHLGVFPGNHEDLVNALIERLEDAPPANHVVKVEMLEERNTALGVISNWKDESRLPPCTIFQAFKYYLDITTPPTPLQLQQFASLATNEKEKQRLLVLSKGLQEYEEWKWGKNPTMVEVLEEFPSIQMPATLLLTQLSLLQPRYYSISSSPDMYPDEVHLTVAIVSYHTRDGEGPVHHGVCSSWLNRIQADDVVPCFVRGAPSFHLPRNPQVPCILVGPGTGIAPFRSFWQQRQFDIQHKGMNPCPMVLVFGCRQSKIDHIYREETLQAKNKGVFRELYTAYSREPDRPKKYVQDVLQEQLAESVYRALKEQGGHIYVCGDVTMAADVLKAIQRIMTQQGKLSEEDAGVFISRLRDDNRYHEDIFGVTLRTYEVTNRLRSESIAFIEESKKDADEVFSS

[4] = DRUGMATRIX: ATPase, Na+/K+ enzyme inhibition (substrate: ATP); assay type: tissue-based, Sus scrofa, Heart; conditions: Not Active = under 50% inhibition at 10 µM
Neutrophil elastase = biological target: T3, Neutrophil elastase (Homo sapiens, UniProt P08246); assay type: tissue-based;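 note: inhibition of neutrophil elastase enzyme activity, measured with a p-nitroanilide-linked peptide substrate; in other assays of this panel Not Active means under 50% inhibition at 10 µM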
T3 sequence (P08246 whole entry): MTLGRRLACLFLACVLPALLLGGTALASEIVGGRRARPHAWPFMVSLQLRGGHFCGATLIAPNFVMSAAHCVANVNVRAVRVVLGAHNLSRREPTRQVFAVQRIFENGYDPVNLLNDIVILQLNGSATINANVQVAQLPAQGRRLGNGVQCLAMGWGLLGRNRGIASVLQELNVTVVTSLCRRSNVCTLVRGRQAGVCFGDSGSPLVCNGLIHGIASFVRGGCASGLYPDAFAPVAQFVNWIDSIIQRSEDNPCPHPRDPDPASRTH

[5] = DRUGMATRIX: Nicotinic Acetylcholine radioligand binding (ligand: [125I] Epibatidine); assay type: cell membranes, Membrane; conditions: imr-32; Not Active = under 50% inhibition at 10 µM
Adenosine receptor A1 = biological target: T4, Adenosine receptor A1 (Homo sapiens, UniProt P30542); assay type: cell membranes, CHO, Membrane; conditions: cho
T4 sequence (P30542 whole entry): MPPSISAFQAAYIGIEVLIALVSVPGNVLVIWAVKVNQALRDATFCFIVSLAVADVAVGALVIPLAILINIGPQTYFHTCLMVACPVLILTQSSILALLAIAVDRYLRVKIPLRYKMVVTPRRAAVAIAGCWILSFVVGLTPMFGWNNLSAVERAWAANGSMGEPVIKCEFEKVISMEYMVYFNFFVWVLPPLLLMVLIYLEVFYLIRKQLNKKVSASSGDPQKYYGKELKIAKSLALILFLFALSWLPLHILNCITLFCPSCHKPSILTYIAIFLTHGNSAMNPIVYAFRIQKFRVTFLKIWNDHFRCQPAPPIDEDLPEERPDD

SMILES	IC50 [1]	Ki [1]	IC50 (Interstitial collagenase)	IC50 [2]	Ki [2]	IC50 [3]	IC50 (Nitric oxide synthase 1)	IC50 [4]	Ki [4]	IC50 (Neutrophil elastase)	IC50 [5]	Ki [5]	IC50 (Adenosine receptor A1)	IC50 ([4]; read-out: IC50) [µM]
NCC[C@H](O)C(=O)N[C@@H]1C[C@H](N)[C@@H](O[C@H]2O[C@H](CN)[C@@H](O)[C@H](O)[C@H]2O)[C@H](O)[C@H]1O[C@H]1O[C@H](CO)[C@@H](O)[C@H](N)[C@H]1O [AMIKACIN]	Not Active	Not Active	Not Active	Not Active	Not Active	Not Active	Not Active	Not Active	Not Active	Not Active	Not Active	Not Active	Not Active	
C/C=C1\[C@H]2C=C(C)C[C@]1(N)c1ccc(=O)[nH]c1C2 [HUPERZINE A]	Not Active	Not Active	Not Active	Not Active	Not Active	Not Active	Not Active	Not Active	Not Active	Not Active	Not Active	Not Active	Not Active	
CC(/C=C1\SC(=S)N(CC(=O)O)C1=O)=C\c1ccccc1	Not Active	Not Active	Not Active	Not Active	Not Active	Not Active	Not Active	Not Active	Not Active	Not Active	Not Active	Not Active	Not Active	
CCC1(c2ccccc2)C(=O)NCNC1=O [PRIMIDONE]	Not Active	Not Active	Not Active	Not Active	Not Active	Not Active	Not Active	Not Active	Not Active	Not Active	Not Active	Not Active	Not Active	
CNCCC=C1c2ccccc2CCc2ccccc21 [NORTRIPTYLINE]	Not Active	Not Active	Not Active	Not Active	Not Active	Not Active	Not Active	Not Active	Not Active	Not Active	Not Active	Not Active	Not Active	
CCOC(=O)c1ccc(N)cc1 [BENZOCAINE]	Not Active	Not Active	Not Active	Not Active	Not Active	Not Active	Not Active	Not Active	Not Active	Not Active	Not Active	Not Active	Not Active	
Fc1ccc([C@@H]2CCNC[C@H]2COc2ccc3c(c2)OCO3)cc1 [PAROXETINE]	Not Active	Not Active	Not Active	Not Active	Not Active	Not Active	Not Active	Not Active	Not Active	Not Active	Not Active	Not Active	Not Active	
CC(C)NC[C@H](O)COc1cccc2[nH]ccc12	Not Active	Not Active	Not Active	Not Active	Not Active	Not Active	Not Active	Not Active	Not Active	Not Active	Not Active	Not Active	Not Active	
CC=CC(=O)N(CC)c1ccccc1C	Not Active	Not Active	Not Active	Not Active	Not Active	Not Active	Not Active	Not Active	Not Active	Not Active	Not Active	Not Active	Not Active	
CC(=O)O[C@]1(C(C)=O)CC[C@H]2[C@@H]3C=C(Cl)C4=CC(=O)CC[C@]4(C)[C@H]3CC[C@@]21C [CHLORMADINONE ACETATE]	Not Active	Not Active	Not Active	Not Active	Not Active	Not Active	Not Active			Not Active	Not Active	Not Active	Not Active	4.57
Cn1cnc([N+](=O)[O-])c1Sc1ncnc2nc[nH]c12 [AZATHIOPRINE]	Not Active	Not Active	Not Active	Not Active	Not Active	Not Active	Not Active	Not Active	Not Active	Not Active	Not Active	Not Active	Not Active	
Oc1c(Cl)cc(Cl)cc1Sc1cc(Cl)cc(Cl)c1O [BITHIONOL]	Not Active	Not Active	Not Active	Not Active	Not Active	Not Active	Not Active			Not Active	Not Active	Not Active	Not Active	5.02
